Test results: patent US7598028B2, “Compositions and methods for detecting and treating prostate disorders” (The Regents of the University of Michigan, priority 2006, dated 2009)

Columns and labels:
[1] = tested on: BPH-1 prostate epithelial cells; assay: Proliferation assay, BPH-1; format: cell-based, human; details: 0.001-1 nM CXCL5, p<0.05
Method: Proliferation Assays. Cellular proliferation was assessed after plating cells at 50,000 cell/well in triplicate in six well plates and counting cells after 24 and 96 hours of incubation as described previously (see, e.g., Begley L, et al., Genes Chromosomes Cancer. 2006 February; 45(2): 136-46; herein incorporated by reference in its entirety). To assess the effects of exogenous CXCL5 on cellular proliferation, recombinant human CXCL5 (R&D Systems, 254-X) was added at the desired concentration in 2 ml SF media (or 2 ml SF media alone for control) to each well. The cells were re-fed at 24 hours growth and counted at 24 and 96 hours growth. Cell counts were normalized to 50,000 cells at 24 hours to account for any plating discrepancies. Averages and standard deviations of cell number were calculated for each time point under each media condition. For the antibody blockade experiments, 10,000 cells per well were plated in triplicate in 24 well dishes and preincubated with mouse anti-human CXCR2 (Biosource AHR1532X) or mouse antihuman CXCR4 (BD Pharmingen 555971) at 1 ug/ml for 1 hour prior to CXCL5 addition. Cells were maintained in media containing appropriate antibodies for the entirety of the experiment and were counted at 24 and 96 hours as above.

[2] = tested on: N1 prostate fibroblast cells; assay: Proliferation assay, add back, N1 fibroblasts; format: cell-based, human; details: add back of exogenous chemokine, 96 hours
Source text: FIG. 6C describes how CXCL1, CXCL5, CXCL6, and CXCL12 stimulate N15C6 prostate epithelial cell proliferation, N1 prostate fibroblast cell proliferation, and LNCaP prostate epithelial cell proliferation compared to serum-free (SF HIE) media alone. “Add back” assays were next performed to determine whether the addition of exogenous CXCL1, CXCL5, CXCL6, and CXCL12 to defined, serum-free media induced […] or LNCaP prostate epithelial or N1 fibroblast cell proliferation. For these and all experiments utilizing N15C6 and LNCaP cells, the N15C6 and N1 cells were used between passage 35-45, and LNCaP cells between passages 25-35, for consistency. All recombinant CXC proteins were obtained from R&D systems (e.g., CXCL1, #275-GR, CXCL5, #254-X; CXCL6, #333-GC, and SDF1 alpha/CXCL12, #350-NS). Cells were plated at 50,000 cells/well in triplicate, treated for 96 hours, and counted. […] Moreover, the concentrations for CXCL1, CXCL5, CXCL6 and CXCL12 observed to be growth-stimulatory for prostate epithelial cells were similar to those secreted into the media by older prostate stromal fibroblasts (see, e.g., FIGS. 6A and 6B).

## CXCL5: recombinant human CXCL5 (R&D Systems, 254-X), CXC-type chemokine
[1]
  proliferation versus SF media alone: significantly higher
[2]
  cell proliferation compared to serum-free (SF HIE) media alone: stimulate
